Among the data in a melting point compilation (Tetko et al.; mined from patent text by program, amines drawn as free bases though some values may be those of a salt) are melting point values, retold here.

Structures are written as SMILES.

For the compound `O=C(N[C@H]1CC[C@H](CCN2CCC(c3cccc4c3CCO4)CC2)CC1)c1ccc(-n2cccn2)cc1`, the melting point amounted to 258 °C.
Then `CC(=NO)C(=O)c1ccc(OCc2cccc(C(F)(F)F)c2)cc1`, with 137 to 138 °C.
As for `CNC(=O)N1N=C(c2ccc([N+](=O)[O-])c(C)c2)c2cc3c(cc2CC1C)OCO3` (stereo not drawn), the melting point was 221 to 229 °C.
`CNc1ncc2c(n1)N(c1ccccc1)C(=O)N(c1c(Cl)cccc1Cl)C2` registered a melting point of 211 to 213 °C.
Compound `Nc1ccc(S(=O)(=O)c2cc(-c3cc(C(F)(F)F)cc(C(F)(F)F)c3)nc(N3CCCC3)c2)cc1` came in with a melting point of 184 to 186 °C.
Turning to `COC(=O)CCCc1cc2cc(Cl)ccc2n1S(=O)(=O)c1ccc2ncsc2c1`, the melting point fell in the range of 121 to 123 °C.
The compound `Nc1cc(Cl)c(Cc2ccc(C(=O)c3cnc(Cl)c(Cl)c3)cc2)c(Cl)c1` had a melting point of 140 to 145 °C.
`CC1(C)c2ccccc2S(=O)(=O)N1CCCCl` had a melting point of 107 °C.
Take `O=C1NCC(CCN2CCN(c3ccccc3F)CC2)O1` (stereo not drawn): the melting point fell in the range of 121 to 124 °C.
As for `CCOc1cc2c(c3c1OC(C)(C)C3)C(c1cccc(N3C(=O)CNC3=O)c1)=NC(C)(C)C2`, the melting point was in the range of 202 to 204 °C.
With `C#CCN1C(=O)C2(CCCC2)c2ccccc21` the figure was 109 to 111 °C.
Then `CC(=NCCO)c1ccccc1NC(=O)C(Cl)(Cl)Cl`, with 182 °C; and `CC(C)n1nc2c(F)cccc2c1-c1ccc(O)cc1O`, with greater than 160 °C.
For `c1ccc2c(c1)ncc1nc(C3CCCC3)[nH]c12`, the melting point was determined as 192 °C.
Consider `Cc1cc(=O)c2c([nH]1)CCOC2`, for which the melting point was greater than 285 °C.
With `Cc1cc(O)c(C2CCCCC2)cc1S(=O)c1cc(C2CCCCC2)c(O)cc1C` the figure was 151 to 153 °C; with `CCCCCCCCCCCCC(=O)c1c[nH]c(C(=O)OC)c1`, 92 to 93 °C; with `CC1Cc2c(F)cc(F)cc2C1=O` (stereo not drawn), 68 to 69 °C.
With `CC(=O)OCC1OC(c2ccc(Cl)c(Cc3ccc(-c4ccc(F)nc4)s3)c2)C(OC(C)=O)C(OC(C)=O)C1OC(C)=O` (stereo not drawn), the melting point was 161 to 162 °C.
The compound `ON=Cc1cc(-c2ncc(C(F)(F)F)cc2Cl)ccc1Cl` registered a melting point of 173 to 174 °C.
Consider `NC(=O)c1nnc2n1-c1sc(Cl)cc1C(c1ccccc1Cl)=NC2`, for which the melting point is 248 to 251 °C.
The compound `COc1ccc2c(c1)CCC[C@H]2NC(=O)c1cccc(Cl)c1O` returned a melting point of 111 to 113 °C.
With `O=C(Nc1ccc(-c2cnc(-c3cccc(NC(=O)c4ccccn4)c3)[nH]2)cc1)c1ccccn1` the figure was 205 to 208 °C; with `Nc1c(Cl)cc(C(O)CNCCCCCCOCCCc2ccc([N+](=O)[O-])cn2)cc1Cl` (stereo not drawn), 60 to 61 °C.
Consider `COC(=O)c1nc(Cl)c(F)c(N)c1Cl`, for which the melting point lay within 128 to 131 °C.
On to `COc1ccc(-c2cc(N3CCN(c4ccccc4)CC3)nc(C)c2-c2ccc(OC)cc2)cc1`, for which the melting point lay in the range of 173 to 174 °C.
As for `COc1ccc2c(c1)c(CC(=O)O)c(C)n2C(=O)c1ccc(Cl)c(Cl)c1`, the melting point lay within 95 to 97 °C.
`Cc1nc2c3c(c(C(N)=O)cc2n1C)CCC(c1ccccc1)O3` (stereo not drawn) had a melting point of 264 to 267 °C.
The compound `CC(C)N1C(=O)NC(c2cccnc2)c2cc3c(cc21)OCO3` (stereo not drawn) returned a melting point of 172 to 174 °C.
`CCC(=O)c1c(C)cc(NC(C)(C)C)nc1NC(C)(C)C` returned a melting point of 102 to 103 °C.
Then `COC(=O)C#CC(=O)c1ccc(F)cc1`, with 62 to 63 °C; and `COc1ccc(S(=O)(=O)c2ncn(-c3ccccc3)c2-c2ccccc2)cc1`, with 157 °C; and `COc1ccc(S(=O)(=O)NCCc2ccc(C(C)=O)cc2)cc1`, with 122 to 123 °C.
Then `Cc1ccc(-c2cn3ccc(Cl)cc3n2)cc1C`, with 144 °C; and `Cc1cccc(NC(=O)NCC(=O)N(CC(=O)N(C)c2ccc(F)c(F)c2)c2ccccc2)c1`, with 163 °C.
On to `CC1(C)OC(c2ccc(S(N)(=O)=O)cc2)=C(c2ccc(F)cc2)C1=O`, for which the melting point is 162 to 163 °C.
Regarding `Cc1cccc(Cc2ccc(-c3cnn4c(O)ncnc34)cc2)c1`, the melting point lay in the range of 271 to 278 °C.
Consider `CN1CCN(C(=O)c2cc(S(=O)(=O)NC34CC5CC(CC(C5)C3)C4)ccc2N)CC1`, for which the melting point lay within 214 to 215 °C.
Take `CCOC(=O)C(C)(NC(C)=O)C(=O)OCC`: the melting point lay in the range of 89 to 90 °C.
Compound `O=C(O)C(O)c1ccc2ccccc2c1` (racemic) had a melting point of 164 to 166 °C.
For `OC(c1ccc2c(c1)CCN2)(C(F)F)C(F)(F)F` (stereo not drawn), the melting point lay in the range of 129 to 132 °C.
`COc1c(S(=O)C(F)(F)F)c(C#N)nn1-c1c(Cl)cc(C(F)(F)F)cc1Cl` (stereo not drawn) returned a melting point of 136 to 137 °C.
For the compound `CS(=O)(=O)c1cc(C(=O)O)ccc1Oc1ccc(C(O)CSc2ccccn2)cc1` (stereo not drawn), the melting point was 169 to 174 °C.
As for `COC(=O)c1ccc(CC(C#N)(c2ccccc2Cl)N2CCOCC2)cc1` (stereo not drawn), the melting point is 116 to 118 °C.
The compound `CCOC(=O)c1ccc(NCCc2ccc(OCc3ccccc3)cc2)cc1` showed a melting point of 94 to 97 °C.
Then `CCOC(=O)/C=C/c1ccc(Br)nc1`, with 79 to 80 °C; and `COc1ccc(C=CC(=O)c2cccc(OCCCCCBr)c2)cc1`, with 83 to 84 °C; and `CCOC(=NC(=O)c1ccccc1C(F)(F)F)c1ccccc1Cl`, with 64 to 65 °C.
With `CC(=O)C(=NNc1cccc(Cl)c1)Sc1ccc(Cl)cc1` the figure was 128 to 131 °C; with `CCCCc1nc2c(N)nc3ccccc3c2n1CCCC(C)=NOC`, 157 to 159 °C; with `Cc1ccc(NC(=O)C(C)C)c(-c2ccnc(SC(F)(F)F)n2)c1`, 114 to 116 °C.
`COc1cccc(-c2c(Cl)cccc2Cl)c1OC`: the melting point lay within 49 to 50 °C.
Then `O=C(c1ccc(-c2cc(-c3c[nH]nc3-c3ccccn3)ccn2)cc1)N1CCOCC1`, with 155 °C; and `Fc1cc2c(-c3cccs3)c(CBr)cnc2c(F)c1F`, with 98 to 100 °C; and `CCOc1cccc(OCC)c1NC(=O)Cc1c(-c2ccccc2OC)c2cc(Cl)ccc2n1C`, with 180 to 183 °C.
Then `CCOC(=O)c1cc2cccc(NS(C)(=O)=O)c2[nH]1`, with 157 to 158 °C; and `O=[N+]([O-])c1ccc(-c2nc(-c3ccc([N+](=O)[O-])cc3)c(-c3ccc([N+](=O)[O-])cc3)[nH]2)cc1`, with 320 to 322 °C; and `CS(=O)c1c(C#N)nn(-c2c(Cl)cc(C(F)(F)F)cc2Cl)c1NCC(N)=O` (stereo not drawn), with 155 to 157 °C.
Then `CC(=O)NCc1cc([N+](=O)[O-])ccc1N`, with 208 to 210 °C; and `CC(=O)N=c1sc(C)cn1CC(O)c1cccs1` (stereo not drawn), with 106 to 107 °C; and `CC1(C)CC(=O)c2c(Nc3ccccn3)cn(-c3ccccn3)c2C1`, with 180 to 183 °C.
In the case of `COc1cc2c(cc1OCc1ccccc1)CCN(Cc1ccncc1)C2`, the melting point fell in the range of 125 to 126 °C.
In turn, `CCOC(=O)/C=C/c1cc(-c2ccccc2)n(-c2ccc(S(C)(=O)=O)cc2)n1` came in with a melting point of 164 to 168 °C.
On to `Cc1c(O)c(C)c2c(C)cn(C(=O)C(C)(C)C)c2c1C`, for which the melting point was 152 to 153 °C.
In turn, `COc1cc2c(cc1Cl)C(Cl)(c1ccccc1Cl)C(=O)N2` (stereo not drawn) returned a melting point of 237 to 240 °C.
For the compound `COc1cccc(CNc2nccc(-c3cc(N4CCN(CCCN(C)C)CC4)c4cc(OC)ccc4c3)n2)c1`, the melting point lay within 70 to 75 °C.
As for `NCCCCCCOc1ccccc1C(=O)Nc1ccc(C(=O)N2CCCCc3ccccc32)cc1`, the melting point was in the range of 136 to 138 °C.
As to `COC(=O)C(=O)Oc1cc(-n2c(=O)cc(C(F)(F)F)n(C)c2=O)c(F)cc1Cl`, the melting point lay within 103 to 105 °C.
`COc1ccc(C(=Nc2c(Cl)cncc2Cl)NCc2ccccc2)cc1OC1CCCC1` had a melting point of 129 to 133 °C.
For `CCCCN(Cc1ccc(C#N)cc1Cl)c1c(NC(C)(C)C)c(=O)c1=O`, the melting point was in the range of 133 to 134 °C.
With `Cc1cc(C#CCc2ccc3c(c2)C(C)(C)CCC3(C)C)ccc1C(=O)O`, the melting point lay within 149 to 150 °C.
Regarding `Cc1cccc2ncc3nnnn3c12`, the melting point lay within 166 to 168 °C.
With `CCC(C)CNC(=O)c1ccc2c(c1)N(C(C)CN(C)CC)c1ccccc1S2` (mixture of isomers) the figure was 95 °C.
With `CCN1CCC2(c3cccc(OC)c3)Cc3[nH]c(C(=O)Nc4ccccc4)c(C)c3CC2C1` (stereo not drawn) the figure was 178 to 180 °C.
With `O=c1nc(-c2ccc3c(c2)OCO3)c2cc3c(cc2[nH]1)OCO3` the figure was greater than 300 °C.
`Nc1nc2c(ncn2COCCCP(=O)(O)O)c(=O)[nH]1` returned a melting point of 202 °C.
With `CN(C)C1CCN(C(=O)c2ccc(-c3[nH]nc4c3C(=O)c3c(NC(=O)NN5CCOCC5)cccc3-4)s2)CC1`, the melting point fell in the range of 185 to 186 °C.
Compound `CC(=O)OCC1OC(n2cc(SC#N)c(=O)[nH]c2=O)CC1(O)C(C)=O` (stereo not drawn) returned a melting point of 106 to 108 °C.
Compound `CN1C(=O)C(c2cccc(-c3cccnc3F)c2)(c2cnn(CC(F)(F)F)c2)N=C1N` (stereo not drawn) came in with a melting point of 104 to 106 °C.
`CNS(=O)(=O)c1ccc(N2CC(CO)OC2=O)cc1` (stereo not drawn) gave a melting point of 164 to 166 °C.
`COCc1nccc(=O)[nH]1`: the melting point is 125 to 127 °C.
The compound `CCOC(=O)N1CCN(C2=C(O)C(=O)c3ccccc3C2=O)CC1` came in with a melting point of 115 to 118 °C.
As for `Cc1cc(F)c(N)cc1O`, the melting point turned out to be 147 °C.
For `Cc1ccc2c(-c3ccoc3)cc(=O)oc2c1`, the melting point was in the range of 160 to 162 °C.
Consider `Cc1nn(CC(F)(F)F)c(C(N)=O)c1[N+](=O)[O-]`, for which the melting point lay within 205 to 207 °C.
Regarding `CCCCc1c(C)c2ccc(OCCCN3CCC(NC(=O)c4ccccc4)CC3)cc2oc1=O`, the melting point was in the range of 170 to 171 °C.
As to `CC(C)(C)OC(=O)C1CCN(C(=O)C2CN(c3ccc(-c4noc(=O)[nH]4)cc3)C(=O)O2)CC1` (stereo not drawn), the melting point fell in the range of 171 to 175 °C.
With `COc1cc(C=CCN(C)CCc2ccc(N=C(N)c3cccs3)cc2)cc(OC)c1O`, the melting point was in the range of 153 to 154 °C.

By melting point is commonly meant the temperature, or range, at which the solid turns liquid.
